Measurements reported in the supplement of paper PMC10307832.

Tests used:
Assay in all cases: relative viability (nuclei count vs DMSO), 5 days (fraction); higher = more cells survive
[1] = compound: C1CC2=C(C1)C=C(C=C2)OC3=NC(=C4C(=N3)N(C=N4)CC5=CC=C(C=C5)C6=CC=CC=C6)N[C@@H](CC7=CC=CC=C7)CO [QS11] + CCNC(=O)c1noc(-c2cc(C(C)C)c(O)cc2O)c1-c1ccc(CN2CCOCC2)cc1 [Luminespib] (partner 0.01 µM)
How it was run: (§1)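 Cells from lung cancer lines were seeded into 1536-well plates and, one day later, dosed by pin tool. Treatments were either a single drug or a fixed dose of an anchor drug with five library-drug doses (not always all listed) in √10 steps. After 5 days, nuclei were stained in a one-step fixation (final 0.05% Triton X-100, 1% formaldehyde, 1 ug/ml Hoechst) and counted on 4× images, and relative viability is the treated-to-vehicle nuclei ratio, as the median of duplicate plates.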

[2] = compound: CC1=C(C=C(C=C1)NC(=O)C2=CC(=CC=C2)C(C)(C)C#N)NC3=CC4=C(C=C3)N=CN(C4=O)C [AZ628] + CC1(C)CCC(c2ccc(Cl)cc2)=C(CN2CCN(c3ccc(C(=O)NS(=O)(=O)c4ccc(N[C@H](CCN5CCOCC5)CSc5ccccc5)c(S(=O)(=O)C(F)(F)F)c4)cc3)CC2)C1 [Navitoclax] (partner 0.5 µM)
How it was run: as §1

[3] = compound: C1CC2=C(C1)C=C(C=C2)OC3=NC(=C4C(=N3)N(C=N4)CC5=CC=C(C=C5)C6=CC=CC=C6)N[C@@H](CC7=CC=CC=C7)CO [QS11] + CS(=O)(=O)CCNCc1ccc(-c2ccc3ncnc(Nc4ccc(OCc5cccc(F)c5)c(Cl)c4)c3c2)o1 [Lapatinib] (partner 2 µM)
How it was run: as §1

[4] = compound: C[As](C)SC[C@H](NC(=O)CC[C@H](N)C(=O)O)C(=O)NCC(=O)O [Darinaparsin] + COc1cccc2cc(-c3nc([C@H]4CC[C@H](C(=O)O)CC4)n4ncnc(N)c34)[nH]c12 [OSI-027] (partner 0.5 µM)
How it was run: as §1

Cell Line	relative viability ([1]; first compound 0.08 µM)	relative viability ([1]; first compound 0.253 µM)	relative viability ([1]; first compound 0.8 µM)	relative viability ([1]; first compound 2.53 µM)	relative viability ([1]; first compound 8 µM)	relative viability ([2]; first compound 0.08 µM)	relative viability ([2]; first compound 0.253 µM)	relative viability ([2]; first compound 0.8 µM)	relative viability ([2]; first compound 2.53 µM)	relative viability ([2]; first compound 8 µM)	relative viability ([3]; first compound 0.08 µM)	relative viability ([3]; first compound 0.253 µM)	relative viability ([3]; first compound 0.8 µM)	relative viability ([3]; first compound 2.53 µM)	relative viability ([3]; first compound 8 µM)	relative viability ([4]; first compound 0.08 µM)	relative viability ([4]; first compound 0.8 µM)	relative viability ([4]; first compound 2.53 µM)	relative viability ([4]; first compound 8 µM)
PC-3 [JPC-3]	0.708	0.729	0.663	0.718	0.703	0.835	0.782	0.875	0.814	0.817	0.464	0.409	0.436	0.5	0.435	0.844	0.781	0.734	0.788
NCI-H1651	1.05	0.923	0.75	0.714	0.752	1.07	1.02	1.2	1.25	1.1	0.941	0.872	0.828	1.01	0.76	0.78	0.753	0.619	0.822
LK-2	0.164	0.229	0.178	0.172	0.146	1.07	0.887	0.847	0.818	0.634	1.04	1.15	1	0.829	1.3	0.188	0.19	0.181	0.199
NCI-H2023	0.789	0.916	0.554	0.624	0.814	1.01	1.02	1.03	0.996	0.762	0.809	0.797	0.747	0.773	0.706	0.483	0.364	0.33	0.486
COR-L23	0.718	0.683	0.673	0.552	0.576	1.02	1.12	1.2	1.07	0.492	1.1	1.08	0.68	0.582	0.849	0.975	0.645	0.785	0.838
NCI-H1734	0.2	0.199	0.186	0.179	0.168	0.864	0.718	0.818	0.791	0.502	1.07	0.968	0.921	1.01	0.898	0.684	0.595	0.621	0.739
NCI-H23	0.212	0.237	0.208	0.227	0.182	0.878	0.868	0.61	0.783	0.559	1.01	0.988	0.871	0.885	1.1	0.668	0.579	0.669	0.606
NCI-H647	0.155	0.321	0.118	0.171	0.141	1.29	1.1	1.21	1.19	1.02	0.939	1.12	0.916	1.1	0.711	0.625	0.59	0.545	1.08
NCI-H1915	0.952	0.959	–	0.766	0.447	0.764	0.768	0.79	0.689	0.584	1.04	1.02	–	1.02	0.802	0.741	0.649	0.644	0.749
201T	1.08	1.12	0.815	1.01	0.692	1.22	1.21	1.25	1.27	1.23	1.05	0.835	0.834	1.11	0.895	0.963	0.701	–	0.93
NCI-H3122	0.114	0.148	–	0.114	0.109	0.929	0.762	0.73	0.555	0.42	1.03	1.14	0.71	1.16	0.824	1.21	1	0.95	1.14
NCI-H2170	0.603	0.646	0.766	0.806	0.665	0.654	0.636	0.707	0.748	0.721	0.276	0.262	0.246	0.281	0.316	0.734	0.725	0.697	0.727
HARA	0.675	0.747	–	0.845	1.19	1.2	1.12	1.13	1.14	0.591	0.675	0.643	–	0.708	0.751	0.68	0.502	0.54	0.572
NCI-H2347	0.367	0.571	0.505	0.352	0.886	0.519	0.67	0.712	0.638	0.368	0.867	0.93	0.795	0.859	1.02	0.398	–	0.424	0.407
NCI-H1437	1.15	1.2	1.11	1.05	0.947	1.09	1.09	1.19	1.25	1.07	0.832	0.846	0.581	0.704	0.598	0.955	0.897	0.935	1.01
LXF-289	0.544	0.739	0.544	0.519	0.551	0.941	0.875	0.87	0.942	0.568	0.941	0.909	0.757	0.821	0.739	0.849	0.786	0.649	1.02
NCI-H1792	0.432	0.417	0.386	0.369	0.409	0.682	0.619	0.545	0.591	0.44	–	1.03	0.633	0.937	0.711	0.847	0.604	0.866	0.96

Cell Line	relative viability ([1]; first compound 0.08 µM)	relative viability ([1]; first compound 0.253 µM)	relative viability ([1]; first compound 0.8 µM)	relative viability ([1]; first compound 2.53 µM)	relative viability ([1]; first compound 8 µM)	relative viability ([2]; first compound 0.08 µM)	relative viability ([2]; first compound 0.253 µM)	relative viability ([2]; first compound 0.8 µM)	relative viability ([2]; first compound 2.53 µM)	relative viability ([2]; first compound 8 µM)	relative viability ([3]; first compound 0.08 µM)	relative viability ([3]; first compound 0.253 µM)	relative viability ([3]; first compound 0.8 µM)	relative viability ([3]; first compound 2.53 µM)	relative viability ([3]; first compound 8 µM)	relative viability ([4]; first compound 0.08 µM)	relative viability ([4]; first compound 0.8 µM)	relative viability ([4]; first compound 2.53 µM)	relative viability ([4]; first compound 8 µM)
LU99A	0.238	0.269	0.284	0.273	0.335	0.856	0.859	0.865	0.895	0.296	0.83	1.17	1.15	0.963	0.637	0.311	0.298	0.337	0.271
NCI-H1666	1.01	1.1	0.702	0.728	0.519	0.865	0.771	0.728	0.772	0.513	0.607	0.398	0.542	0.578	0.42	0.926	0.827	0.847	0.982
LOU-NH91	0.361	0.361	0.34	0.308	0.368	0.681	0.713	0.713	0.654	0.4	0.742	0.622	–	0.731	0.685	0.74	0.689	0.711	0.79
RERF-LC-KJ	1.5	1.35	1.04	1.22	1.11	1.04	0.816	0.755	0.861	0.745	0.588	0.877	0.577	0.77	0.882	0.592	0.574	0.527	0.596
NCI-H2085	0.376	0.474	0.286	0.403	0.546	1.19	1.12	1.08	1.04	0.861	0.714	0.716	0.713	0.861	0.778	0.778	0.806	0.762	0.673
NCI-H1793	0.137	0.177	0.171	0.189	0.158	0.533	0.511	0.53	0.384	0.285	0.807	0.659	0.802	0.925	1.1	0.329	0.254	0.27	0.309
NCI-H596	0.87	1.09	0.919	0.829	0.934	0.839	1	1.08	1.03	0.931	1	1.02	1.02	1.03	1.05	0.766	0.845	0.647	0.762
NCI-H2126	0.923	0.976	0.695	0.766	0.726	0.894	0.886	0.866	0.794	0.624	0.792	0.698	0.727	0.802	0.717	0.726	0.764	0.635	0.639
EMC-BAC-2	1.28	1.27	0.817	0.953	0.961	1.26	1.09	1.07	1.06	1.05	0.927	0.89	0.884	0.984	0.89	0.364	0.315	0.405	0.409
H3255	0.818	1.06	–	0.966	0.961	0.496	0.503	0.558	0.489	0.227	0.261	0.236	–	0.24	0.234	0.607	0.543	0.618	0.547
NCI-H838	0.284	0.246	0.282	0.289	0.275	1.15	1.19	1.1	1.11	0.991	0.944	0.918	0.68	0.899	0.904	0.401	0.34	0.458	0.428
NCI-H2009	1.01	1.15	0.823	0.905	0.935	1.11	0.94	0.98	1.04	0.455	0.983	0.884	0.634	0.855	0.728	0.61	0.657	0.584	0.587
HCC-15	0.334	0.311	0.332	0.341	0.389	0.676	0.619	0.54	0.474	0.312	0.874	0.952	–	0.883	0.748	0.737	0.59	0.694	0.707
NCI-H1395	0.795	0.549	0.762	0.843	0.819	1.2	1.08	1.1	1.05	1.22	–	0.98	0.992	1.14	0.977	0.744	0.636	0.586	0.628
CAL-12T	0.608	0.578	0.478	0.362	0.551	1.33	–	1.24	1.28	0.826	0.631	0.601	0.595	0.652	0.68	0.756	0.539	0.737	0.569
COR-L 105	0.838	0.7	0.649	0.776	0.664	0.81	0.967	0.761	0.655	0.652	0.38	0.363	0.343	0.412	0.396	0.625	0.704	0.486	0.559
